Like-named read-outs stand apart in the source and are kept apart here.
What was measured:
M-HeLa = test: MTT cytotoxicity test, M-HeLa cells; assay type: cell-based, human; conditions: 24 h incubation, tested at 1–100 µM, three independent experiments, read-out: IC50 (µM) Cancer Cell Lines M-HeLa
Chang liver = test: MTT cytotoxicity test, normal Chang liver cells; assay type: cell-based, human; conditions: 24 h incubation, tested at 1–100 µM, three independent experiments, read-out: IC50 (µM) Normal Cell Lines Chang Liver
HuTu 80 = test: MTT cytotoxicity test, HuTu 80 cells; assay type: cell-based, human; conditions: for IC50: MTT test, 24 h incubation, tested at 1–100 µM, three independent experiments, read-out: IC50 (µM) Cancer Cell Lines HuTu 80; for selectivity index, SI = IC50(Chang liver)/IC50(HuTu 80): normal Chang liver vs HuTu 80

Row | melting point | Compound | IC50 (M-HeLa; Homo sapiens, M-HeLa) [µM] | IC50 (Chang liver; Homo sapiens, Chang liver) [µM] | IC50 (HuTu 80; Homo sapiens, HuTu80) [µM] | selectivity index, SI = IC50(Chang liver)/IC50(HuTu 80) (HuTu 80) | IC50 (M-HeLa) [µM] | IC50 (Chang liver) [µM] | IC50 (HuTu 80) [µM]
1 | 201 to 205 °C | Cc1ncc(CCl)c2cc(C(=O)N(c3ccccc3)c3ccccc3)c(=O)oc12.Cl [7f, 5-(Chloromethyl)-3-(diphenylcarbamoyl)-8-methyl-2-oxo-2H-pyrano[2,3-c]pyridin-7-ium chloride] | 32 ± 2.2 | 48.4 ± 3.3 | 17.4 ± 1.3 | – | – | – | –
2 | 249 to 250 °C | Cc1ncc(CO)c2cc(C(=O)O)c(=O)oc12 [3a, 5-(hydroxymethyl)-8-methyl-2-oxo-2H-pyrano[2,3-c]pyridin-7-ium-3-carboxylate] | 75.5 ± 6 | 58 ± 4.7 | 57.6 ± 4.6 | – | – | – | –
3 | 161 °C (dec.) | C#CCNC(=O)c1cc2c(CCl)cnc(C)c2oc1=O [7g, 5-(Chloromethyl)-8-methyl-2-oxo-N-(prop-2-yn-1-yl)-2H-pyrano[2,3-c]pyridine-3-carboxamide] | 14.1 ± 1.2 | 13.9 ± 0.3 | 11.2 ± 0.9 | – | – | – | –
4 | > 300 °C | Cc1ncc(CCl)c2cc(C(=O)Nc3ccc(S(N)(=O)=O)cc3)c(=O)oc12 [7h, 5-(Chloromethyl)-8-methyl-2-oxo-N-(4-sulfamoylphenyl)-2H-pyrano[2,3-c]pyridine-3-carboxamide] | 14.8 ± 1.3 | 29.8 ± 2 | 2.9 ± 0.2 | 10 | – | – | –
5 | – | Cc1ncc(COP(=O)(O)O)c2cc(C(=O)O)c(=O)oc12.Nc1ccccn1 [8e, Pyridin-2-aminium 8-methyl-2-oxo-5-((phosphonooxy)methyl)-2H-pyrano[2,3-c]pyridine-3-carboxylate] | – | – | – | – | 99.5 ± 7.1 | 78.4 ± 6.3 | 59 ± 4.1
6 | 219 to 224 °C | Cc1ncc(CO)c2c1OC1=C(C(=O)CC(C)(C)C1)C2C1=C(O)CC(C)(C)CC1=O (stereo not shown) [compound 4, 5-(2-hydroxy-4,4-dimethyl-6-oxocyclohex-1-en-1-yl)-4-(hydroxymethyl)-1,8,8-trimethyl-5,7,8,9-tetrahydro-6H-chromeno[2,3-c]pyridin-6-one] | – | – | – | – | – | – | –
7 | 240 °C (dec.) | Cc1ncc(CCl)c2cc(C(=O)NNC(=O)c3ccccc3)c(=O)oc12 [7m, N′-Benzoyl-5-(chloromethyl)-8-methyl-2-oxo-2H-pyrano[2,3-c]pyridine-3-carbohydrazide] | 61.1 ± 4.2 | 62.4 ± 4.9 | 49.7 ± 3.5 | – | – | – | –
8 | 274 °C (dec.) | Cc1ncc(CCl)c2cc(C(=O)Nc3cccc(NC(=O)c4cc5c(CCl)cnc(C)c5oc4=O)c3)c(=O)oc12 [7p, N,N′-(1,3-Phenylene)bis(5-(chloromethyl)-8-methyl-2-oxo-2H-pyrano[2,3-c]pyridine-3-carboxamide)] | 63 ± 4.4 | 37 ± 2.6 | 81.5 ± 5.7 | – | – | – | –
9 | > 300 °C | Cc1cc(C)nc(NS(=O)(=O)c2ccc(NC(=O)c3cc4c(CCl)cnc(C)c4oc3=O)cc2)n1 [7l, 5-(Chloromethyl)-N-(4-(N-(4,6-dimethylpyrimidin-2-yl)sulfamoyl)phenyl)-8-methyl-2-oxo-2H-pyrano[2,3-c]pyridine-3-carboxamide] | 62.4 ± 4.4 | 126 ± 8.8 | 52.1 ± 3.4 | – | – | – | –
10 | – | O=c1[nH]cc(F)c(=O)[nH]1 [5-fluorouracil, reference compound] | 62 ± 4.7 | 86.3 ± 6.5 | 65.2 ± 5.4 | – | – | – | –
11 | – | Cc1ncc(CO)c2cc(C(=O)O)c(=O)oc12.Cc1ncc(CO)c2cc(C(=O)O)c(=O)oc12.Nc1cccc(N)n1 [8d, Pyridine-2,6-diaminium 5-(hydroxymethyl)-8-methyl-2-oxo-2H-pyrano[2,3-c]pyridine-3-carboxylate] | – | – | – | – | > 100 | 64.1 ± 5.1 | 88.4 ± 7
12 | 214 to 215 °C | COc1ccccc1NC(=O)c1cc2c(CCl)cnc(C)c2oc1=O [7b, 5-(Chloromethyl)-N-(2-methoxyphenyl)-8-methyl-2-oxo-2H-pyrano[2,3-c]pyridine-3-carboxamide] | 84.4 ± 5.5 | 46 ± 3.2 | 55.3 ± 3.9 | – | – | – | –
13 | 240 °C (dec.) | Cc1ncc(CCl)c2cc(C(=O)Nc3ccc([N+](=O)[O-])cc3Br)c(=O)oc12 [7c, N-(2-Bromo-4-nitrophenyl)-5-(chloromethyl)-8-methyl-2-oxo-2H-pyrano[2,3-c]pyridine-3-carboxamide] | 67.4 ± 4.6 | 89.4 ± 6.3 | 43 ± 3.5 | – | – | – | –
14 | – | Cc1ncc(CO)c2cc(C(=O)O)c(=O)oc12.NC1CCCCC1 [8b, Cyclohexanaminium 5-(hydroxymethyl)-8-methyl-2-oxo-2H-pyrano[2,3-c]pyridine-3-carboxylate] | – | – | – | – | 70.4 ± 5.7 | 81 ± 6.5 | 78.2 ± 6.3
15 | > 300 °C | Cc1ncc(CCl)c2cc(C(=O)NNC(=O)c3ccncc3)c(=O)oc12 [7n, 5-(Chloromethyl)-N′-isonicotinoyl-8-methyl-2-oxo-2H-pyrano[2,3-c]pyridine-3-carbohydrazide] | 93.1 ± 6.6 | 64.1 ± 4.8 | 61.2 ± 4.2 | – | – | – | –
16 | 239 to 241 °C | Cc1ncc(CCl)c2cc(C(=O)Nc3ccccc3NC(=O)c3cc4c(CCl)cnc(C)c4oc3=O)c(=O)oc12 [7o, N,N′-(1,2-Phenylene)bis(5-(chloromethyl)-8-methyl-2-oxo-2H-pyrano[2,3-c]pyridine-3-carboxamide)] | 22.5 ± 1.8 | 11.8 ± 0.9 | 3.1 ± 0.2 | 3.8 | – | – | –
17 | – | COc1cccc2c1C(=O)c1c(O)c3c(c(O)c1C2=O)C[C@@](O)(C(=O)CO)C[C@@H]3O[C@H]1C[C@H](N)[C@H](O)[C@H](C)O1 [Doxorubicin, reference compound] | 3 ± 0.2 | 3 ± 0.1 | 3 ± 0.2 | 1 | – | – | –
18 | > 300 °C | Cc1ccnc(NS(=O)(=O)c2ccc(NC(=O)c3cc4c(CCl)cnc(C)c4oc3=O)cc2)n1 [7k, 5-(Chloromethyl)-8-methyl-N-(4-(N-(4-methylpyrimidin-2-yl)sulfamoyl)phenyl)-2-oxo-2H-pyrano[2,3-c]pyridine-3-carboxamide] | 47 ± 3.1 | 61.3 ± 4.2 | 18.1 ± 1.4 | – | – | – | –
19 | > 300 °C | Cc1ncc(CCl)c2cc(C(=O)Nc3cccc(S(=O)(=O)c4cccc(NC(=O)c5cc6c(CCl)cnc(C)c6oc5=O)c4)c3)c(=O)oc12 [7s, N,N′-(Sulfonylbis(3,1-phenylene))bis(5-(chloromethyl)-8-methyl-2-oxo-2H-pyrano[2,3-c]pyridine-3-carboxamide)] | 80 ± 5.7 | 125 ± 11 | 13.8 ± 1.1 | 9 | – | – | –
20 | > 300 °C | CC(=O)NS(=O)(=O)c1ccc(NC(=O)c2cc3c(CCl)cnc(C)c3oc2=O)cc1 [7i, N-(4-(N-Acetylsulfamoyl)phenyl)-5-(chloromethyl)-8-methyl-2-oxo-2H-pyrano[2,3-c]pyridine-3-carboxamide] | 77.8 ± 5.4 | 116 ± 8.1 | 31 ± 1.9 | – | – | – | –
21 | > 300 °C | Cc1ncc(CCl)c2cc(C(=O)Nc3ccccn3)c(=O)oc12 [7d, 5-(Chloromethyl)-8-methyl-2-oxo-N-(pyridin-2-yl)-2H-pyrano[2,3-c]pyridine-3-carboxamide] | 84 ± 5.9 | 88 ± 6.2 | 62 ± 4.3 | – | – | – | –
22 | > 300 °C | Cc1ncc(CCl)c2cc(C(=O)Nc3ccc(S(=O)(=O)Nc4ncccn4)cc3)c(=O)oc12 [7j, 5-(Chloromethyl)-8-methyl-2-oxo-N-(4-(N-(pyrimidin-2-yl)sulfamoyl)phenyl)-2H-pyrano[2,3-c]pyridine-3-carboxamide] | 73.4 ± 5.2 | 73 ± 5.5 | 32 ± 2.1 | – | – | – | –
23 | > 300 °C | Cc1ncc(CCl)c2cc(C(=O)Nc3cccnc3N)c(=O)oc12 [7e, N-(2-Aminopyridin-3-yl)-5-(chloromethyl)-8-methyl-2-oxo-2H-pyrano[2,3-c]pyridine-3-carboxamide] | 54.3 ± 3.6 | 55.3 ± 3.7 | 72 ± 5.2 | – | – | – | –
24 | > 300 °C | Cc1ncc(CCl)c2cc(C(=O)Nc3ccc(NC(=O)c4cc5c(CCl)cnc(C)c5oc4=O)cc3)c(=O)oc12 [7q, N,N′-(1,4-Phenylene)bis(5-(chloromethyl)-8-methyl-2-oxo-2H-pyrano[2,3-c]pyridine-3-carboxamide)] | 84.3 ± 5.9 | > 100 | 95.4 ± 6.5 | – | – | – | –
25 | 240 °C (dec.) | Cc1ncc(CCl)c2cc(C(=O)Nc3ccccc3)c(=O)oc12 [7a, 5-(Chloromethyl)-8-methyl-2-oxo-N-phenyl-2aH-pyrano[2,3-c]pyridine-3-carboxamide] | > 100 | 56.6 ± 4.5 | 59.4 ± 4.8 | – | – | – | –

Row | Compound | melting point | IC50 (M-HeLa; Homo sapiens, M-HeLa) [µM] | IC50 (Chang liver; Homo sapiens, Chang liver) [µM] | IC50 (HuTu 80; Homo sapiens, HuTu80) [µM] | selectivity index, SI = IC50(Chang liver)/IC50(HuTu 80) (HuTu 80) | IC50 (M-HeLa) [µM] | IC50 (Chang liver) [µM] | IC50 (HuTu 80) [µM]
26 | Cc1ncc(COP(=O)(O)O)c2cc(C(=O)O)c(=O)oc12 [3b, 8-methyl-2-oxo-5-((phosphonooxy)methyl)-2H-pyrano[2,3-c]pyridin-7-ium-3-carboxylate] | > 300 °C | 70.6 ± 5.7 | 70 ± 5.6 | 60.5 ± 5.3 | – | – | – | –

— PMC10298512, “Synthesis and Anticancer Evaluation of Novel 7-Aza-Coumarine-3-Carboxamides” (International Journal of Molecular Sciences, 2023)
